PubChem BioAssay AID328 (DTP/NCI, 2004)
Values joined by “and” are separate entries in the source; they are usually repeats but may differ in a detail not shown here. Equal values may be shown once. Toxic doses and inconclusive results are not listed.

Test system: BDF1 mice, P388 leukemia ip, median survival T/C
Assay: NCI In Vivo Anticancer Drug Screen. Data for tumor model P388 Leukemia (intraperitoneal) in B6D2F1 (BDF1) mice
Conditions: endpoint: median survival time, higher = longer survival
Procedure, shortened: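 Transplantable tumour in mice; compound vs vehicle dosing; survival scored; ratio of treated to control reported.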

[1] = dose: 25.0 mg/kg/injection, schedule: Q01DX009 (ip), vehicle: saline with Tween-80
[2] = dose: 100.0 mg/kg/injection, schedule: Q04DX003 (ip), vehicle: saline
[3] = dose: 200.0 mg/kg/injection, schedule: Q04DX003 (ip), vehicle: saline
[4] = dose: 50.0 mg/kg/injection, schedule: Q01DX009 (ip), vehicle: saline with Tween-80
[5] = dose: 100.0 mg/kg/injection, schedule: Q01DX009 (ip), vehicle: saline with Tween-80
[6] = dose: 100.0 mg/kg/injection, schedule: Q04DX003 (ip), vehicle: saline with Tween-80
[7] = dose: 200.0 mg/kg/injection, schedule: Q04DX003 (ip), vehicle: saline with Tween-80
[8] = dose: 400.0 mg/kg/injection, schedule: Q04DX003 (ip), vehicle: saline with Tween-80
[9] = dose: 50.0 mg/kg/injection, schedule: Q01DX009 (ip), vehicle: saline
[10] = dose: 100.0 mg/kg/injection, schedule: Q01DX009 (ip), vehicle: other
[11] = dose: 100.0 mg/kg/injection, schedule: Q01DX009 (ip), vehicle: saline
[12] = dose: 400.0 mg/kg/injection, schedule: Q01DX009 (ip), vehicle: other
[13] = dose: 200.0 mg/kg/injection, schedule: Q01DX009 (ip), vehicle: saline with Tween-80
[14] = dose: 100.0 mg/kg/injection, schedule: Q01DX009 (ip), vehicle: Klucel (hydroxypropylcellulose) (HPC)
[15] = dose: 200.0 mg/kg/injection, schedule: Q01DX009 (ip), vehicle: Klucel (hydroxypropylcellulose) (HPC)
[16] = dose: 400.0 mg/kg/injection, schedule: Q01DX009 (ip), vehicle: Klucel (hydroxypropylcellulose) (HPC)

SMILES: CC(C)COC(=O)NCCF
- T/C (dose: 6.25 mg/kg/injection, schedule: Q01DX009 (ip), vehicle: saline with Tween-80): 107 % of control
- T/C (dose: 12.5 mg/kg/injection, schedule: Q01DX009 (ip), vehicle: saline with Tween-80): 112 % of control
- T/C [1]: 120 % of control

SMILES: CCOC(=O)c1cc2ccccc2n1-c1ccccc1
- T/C (dose: 400.0 mg/kg/injection, schedule: Q01DX009 (ip), vehicle: saline with Tween-80): 103 % of control

SMILES: Cc1nnc2c(=O)[nH]ccn12
- T/C (dose: 100.0 mg/kg/injection, schedule: Q01DX001 (ip), vehicle: saline with Tween-80): 106 % of control
- T/C (dose: 200.0 mg/kg/injection, schedule: Q01DX001 (ip), vehicle: saline with Tween-80): 100 % of control
- T/C (dose: 400.0 mg/kg/injection, schedule: Q01DX001 (ip), vehicle: saline with Tween-80): 103 % of control

SMILES: O=C(O)C(CS(=O)(=O)O)Nc1ncnc2nc[nH]c12 (configuration not stated)
- T/C [2]: 100 % of control
- T/C [3]: 100 % of control
- T/C (dose: 400.0 mg/kg/injection, schedule: Q04DX003 (ip), vehicle: saline): 100 % of control

SMILES: C[C@@H]1C[C@H]2CC[C@H](O2)[C@H](C)C(=O)O[C@@H](C)C[C@@H]2CC[C@@H](O2)[C@@H](C)C(=O)O[C@H](C)C[C@H]2CC[C@H](O2)[C@H](C)C(=O)O[C@@H](C)C[C@@H]2CC[C@@H](O2)[C@@H](C)C(=O)O1
- T/C [4]: 90 % of control
- T/C [5]: 109 % of control
- T/C [6]: 104 % of control
- T/C [7]: 86 % of control

SMILES: C=C(C)C12OC3(c4ccccc4)OC1C1C4OC4(CO)C(O)C4(O)C(=O)C(C)=CC4C1(O3)C(C)C2OC(=O)/C=C/C=C/CCCCC (configuration not stated)
- T/C (dose: 6.3 micrograms/kg/injection, schedule: Q## X009 (ip), vehicle: saline + alcohol): 107 % of control
- T/C (dose: 12.5 micrograms/kg/injection, schedule: Q## X009 (ip), vehicle: saline + alcohol): 103 % of control
- T/C (dose: 25.0 micrograms/kg/injection, schedule: Q## X009 (ip), vehicle: saline + alcohol): 103 % of control
- T/C (dose: 200.0 micrograms/kg/injection, schedule: Q## X009 (ip), vehicle: saline + alcohol): 106 % of control

SMILES: Cc1c2cc3c(c1O)C(=O)CC(O3)c1ccc(O)c(c1)-c1ccc(O)c(c1)C(=O)OCC1OC(O2)C(O)C(O)C1O (configuration not stated)
- T/C (dose: 0.13 mg/kg/injection, schedule: Q01DX009 (ip), vehicle: Klucel (hydroxypropylcellulose) (HPC)): 109 % of control
- T/C (dose: 0.25 mg/kg/injection, schedule: Q01DX009 (ip), vehicle: Klucel (hydroxypropylcellulose) (HPC)): 106 % of control
- T/C (dose: 0.5 mg/kg/injection, schedule: Q01DX009 (ip), vehicle: Klucel (hydroxypropylcellulose) (HPC)): 112 % of control
- T/C (dose: 1.0 mg/kg/injection, schedule: Q01DX009 (ip), vehicle: Klucel (hydroxypropylcellulose) (HPC)): 112 % of control

SMILES: O=NN(CCCl)C(=O)NC12CC3CC(CC(C3)C1)C2
- T/C (dose: 5.0 mg/kg/injection, schedule: Q04DX003 (ip), vehicle: Klucel (hydroxypropylcellulose) (HPC)): 100 % of control
- T/C (dose: 15.0 mg/kg/injection, schedule: Q04DX003 (ip), vehicle: Klucel (hydroxypropylcellulose) (HPC)): 95 % of control
- T/C (dose: 30.0 mg/kg/injection, schedule: Q04DX003 (ip), vehicle: Klucel (hydroxypropylcellulose) (HPC)): 104 % of control
- T/C (dose: 37.5 mg/kg/injection, schedule: Q04DX003 (ip), vehicle: Klucel (hydroxypropylcellulose) (HPC)): 166 % of control
- T/C (dose: 75.0 mg/kg/injection, schedule: Q04DX003 (ip), vehicle: Klucel (hydroxypropylcellulose) (HPC)): 250 % of control
- T/C [6]: 285 % of control
- T/C (dose: 150.0 mg/kg/injection, schedule: Q04DX003 (ip), vehicle: Klucel (hydroxypropylcellulose) (HPC)): 250 % of control
- T/C (dose: 175.0 mg/kg/injection, schedule: Q04DX003 (ip), vehicle: saline): 103 % of control
- T/C [7]: 285 % of control
- T/C [8]: 285 % of control

SMILES: Clc1ncnc2c1ncn2C1CCCCO1 (configuration not stated)
- T/C (dose: 25.0 mg/kg/injection, schedule: Q01DX009 (ip), vehicle: saline): 90 % of control
- T/C [9]: 100 % of control
- T/C [10]: 92 % of control
- T/C [11]: 95 % of control
- T/C (dose: 100.0 mg/kg/injection, schedule: Q04DX003 (ip), vehicle: other): 108 % of control
- T/C (dose: 200.0 mg/kg/injection, schedule: Q04DX003 (ip), vehicle: other): 108 % of control
- T/C [12]: 115 % of control
- T/C (dose: 400.0 mg/kg/injection, schedule: Q04DX003 (ip), vehicle: other): 108 % of control

SMILES: COc1ccc(S(=O)(=O)c2ccccc2)c2nonc12
- T/C [1]: 90 % of control
- T/C [4]: 86 % of control
- T/C [5]: 92 % of control

SMILES: c1csc(C2Nc3ccccc3N2)c1
- T/C [4]: 105 % of control
- T/C [5]: 99 % of control
- T/C [13]: 119 % of control

SMILES: NC(=O)c1c(Br)n(C2OC(CO)C(O)C2O)c2ncnc(N)c12 (configuration not stated)
- T/C [9]: 95 % of control

SMILES: CC1(C)S[C@@H]2[C@H](NC(=O)CCC[C@@H](N)C(=O)O)C(=O)N2[C@H]1C(=O)O
- T/C (dose: 23.0 mg/kg/injection, schedule: Q01DX009 (ip), vehicle: saline): 99 % of control
- T/C (dose: 47.0 mg/kg/injection, schedule: Q01DX009 (ip), vehicle: saline): 106 % of control
- T/C (dose: 94.0 mg/kg/injection, schedule: Q01DX009 (ip), vehicle: saline): 107 % of control and 117 % of control and 120 % of control
- T/C (dose: 188.0 mg/kg/injection, schedule: Q01DX009 (ip), vehicle: saline): 102 % of control and 104 % of control and 106 % of control
- T/C (dose: 750.0 mg/kg/injection, schedule: Q01DX009 (ip), vehicle: saline): 95 % of control and 102 % of control

SMILES: CC(C)CCC[C@@H](C)[C@H]1CC[C@H]2[C@@H]3CC=C4C[C@@H](O)CC[C@]4(C)[C@H]3CC[C@]12C
- T/C [10]: 106 % of control
- T/C (dose: 200.0 mg/kg/injection, schedule: Q01DX009 (ip), vehicle: other): 103 % of control
- T/C [12]: 89 % of control
- T/C (dose: 800.0 mg/kg/injection, schedule: Q01DX009 (ip), vehicle: other): 105 % of control

SMILES: O=C1N=C(Oc2ccccc2)SC1=O
- T/C [1]: 103 % of control and 104 % of control
- T/C (dose: 50.0 mg/kg/injection, schedule: Q01DX009 (ip), vehicle: saline + alcohol): 113 % of control
- T/C [4]: 95 % of control and 108 % of control
- T/C (dose: 100.0 mg/kg/injection, schedule: Q01DX009 (ip), vehicle: saline + alcohol): 120 % of control
- T/C [5]: 117 % of control and 123 % of control
- T/C (dose: 200.0 mg/kg/injection, schedule: Q01DX009 (ip), vehicle: saline + alcohol): 113 % of control
- T/C [13]: 117 % of control and 121 % of control

SMILES: CCCCCC(C(C)=O)(C1=NC(C)(C)CC(C)O1)c1ccccc1 (configuration not stated)
- T/C [2]: 110 % of control
- T/C [3]: 95 % of control

SMILES: COc1cccc(CC(=O)NCCc2ccc(OC)c(OC)c2)c1
- T/C [6]: 100 % of control
- T/C [7]: 90 % of control
- T/C [8]: 100 % of control

SMILES: Cc1nn(C2CC(O)C(O)C(CO)O2)c(=O)[nH]c1=O (configuration not stated)
- T/C [9]: 98 % of control
- T/C [11]: 99 % of control
- T/C (dose: 200.0 mg/kg/injection, schedule: Q01DX009 (ip), vehicle: saline): 97 % of control
- T/C (dose: 400.0 mg/kg/injection, schedule: Q01DX009 (ip), vehicle: saline): 106 % of control

SMILES: CC(C)CCCc1c[nH]c(=O)[nH]c1=O
- T/C (dose: 100.0 mg/kg/injection, schedule: Q01DX001 (ip), vehicle: Klucel (hydroxypropylcellulose) (HPC)): 90 % of control
- T/C [14]: 86 % of control
- T/C (dose: 200.0 mg/kg/injection, schedule: Q01DX001 (ip), vehicle: Klucel (hydroxypropylcellulose) (HPC)): 90 % of control
- T/C [15]: 86 % of control
- T/C (dose: 400.0 mg/kg/injection, schedule: Q01DX001 (ip), vehicle: Klucel (hydroxypropylcellulose) (HPC)): 90 % of control
- T/C [16]: 91 % of control

SMILES: O=C(Cc1ccccc1)OCC#CC#CCOC(=O)Cc1ccccc1
- T/C [14]: 100 % of control
- T/C (dose: 100.0 mg/kg/injection, schedule: Q04DX003 (ip), vehicle: Klucel (hydroxypropylcellulose) (HPC)): 90 % of control
- T/C [15]: 104 % of control
- T/C (dose: 200.0 mg/kg/injection, schedule: Q04DX003 (ip), vehicle: Klucel (hydroxypropylcellulose) (HPC)): 104 % of control
- T/C [16]: 100 % of control
- T/C (dose: 400.0 mg/kg/injection, schedule: Q04DX003 (ip), vehicle: Klucel (hydroxypropylcellulose) (HPC)): 109 % of control

SMILES: NC(=O)NCCCC(N)C(=O)O (configuration not stated)
- T/C (dose: 50.0 mg/kg/injection, schedule: Q01DX010 (ip), vehicle: saline): 94 % of control
- T/C (dose: 100.0 mg/kg/injection, schedule: Q01DX010 (ip), vehicle: saline): 94 % of control
- T/C (dose: 200.0 mg/kg/injection, schedule: Q01DX010 (ip), vehicle: saline): 89 % of control
